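All cell lines were grown in 96-well plates and treated with compound for 48 hours. GI50: concentration for 50% inhibition of growth.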 Calls of active or inactive are those of the source. Rule as the data show it: active = GI50 up to about 1.1 µM and inactive = higher.
Key:
Experiment in all cases: DTP human tumour cell line panel, 48 h
[1] = system: HL-60
[2] = system: HT-29
[3] = system: 786-0
[4] = system: XF498
[5] = system: HCC 2998
[6] = system: HCT-15
[7] = system: SNB-78
[8] = system: M14
[9] = system: SNB-75
[10] = system: NCI-H460
[11] = system: EKVX
[12] = system: KM-20L2
[13] = system: LXFL 529
[14] = system: HOP-62
[15] = system: OVCAR-4
[16] = system: NCI-H226
[17] = system: DMS-273
[18] = system: OVCAR-8
[19] = system: M19-MEL
[20] = system: OVCAR-3
[21] = system: K562
[22] = system: SK-MEL-2
[23] = system: SK-OV-3
[24] = system: OVCAR-5
[25] = system: MOLT-4
[26] = system: HOP-18
[27] = system: RPMI-8226
[28] = system: SK-MEL-5
[29] = system: LOX IMVI
[30] = system: NCI-H23
[31] = system: SW-620
[32] = system: COLO 205
[33] = system: UACC-62
[34] = system: U-251
[35] = system: SF-539
[36] = system: Malme-3M
[37] = system: A549
[38] = system: NCI-H522
[39] = system: A498
[40] = system: DLD-1
[41] = system: ACHN
[42] = system: HCT-116
[43] = system: SF-295
[44] = system: RXF 631
[45] = system: KM12
[46] = system: UO-31
[47] = system: UACC-257
[48] = system: SF-268
[49] = system: SNB-19
[50] = system: TK-10
[51] = system: CCRF-CEM
[52] = system: SN12C
[53] = system: IGROV-1
[54] = system: RXF 393
[55] = system: CAKI-1
[56] = system: T47D
[57] = system: MDA-MB-435
[58] = system: MDA-N
[59] = system: MCF7
[60] = system: DMS-114
[61] = system: SR
[62] = system: HOP-92
[63] = system: DU-145
[64] = system: MDA-MB-231
[65] = system: Hs-578T
[66] = system: SK-MEL-28
[67] = system: BT-549
[68] = system: NCI/ADR-RES
[69] = system: PC-3

COC(=O)C1=C(CO)C2C=CC1C2 (configuration not stated)
GI50 [1]: > 100 µM (inactive)
GI50 [2]: > 100 µM (inactive)
GI50 [3]: > 100 µM (inactive)
GI50 [4]: > 100 µM (inactive)
GI50 [5]: > 100 µM (inactive)
GI50 [6]: > 100 µM
GI50 [7]: > 100 µM (inactive)
GI50 [8]: > 100 µM (inactive)
GI50 [9]: > 100 µM (inactive)
GI50 [10]: > 100 µM (inactive)
GI50 [11]: > 100 µM (inactive)
GI50 [12]: > 100 µM (inactive)
GI50 [13]: > 100 µM (inactive)
GI50 [14]: > 100 µM (inactive)
GI50 [15]: > 100 µM (inactive)
GI50 [16]: > 100 µM (inactive)
GI50 [17]: > 100 µM (inactive)
GI50 [18]: > 100 µM (inactive)
GI50 [19]: > 100 µM (inactive)
GI50 [20]: > 100 µM (inactive)
GI50 [21]: > 100 µM (inactive)
GI50 [22]: > 100 µM (inactive)
GI50 [23]: > 100 µM (inactive)
GI50 [24]: > 100 µM (inactive)
GI50 [25]: > 100 µM (inactive)
GI50 [26]: > 100 µM (inactive)
GI50 [27]: > 100 µM (inactive)
GI50 [28]: > 100 µM (inactive)
GI50 [29]: > 100 µM (inactive)
GI50 [30]: > 100 µM (inactive)
GI50 [31]: > 100 µM (inactive)
GI50 [32]: > 100 µM (inactive)
GI50 [33]: > 100 µM (inactive)
GI50 [34]: > 100 µM (inactive)
GI50 [35]: > 100 µM (inactive)
GI50 [36]: > 100 µM (inactive)
GI50 [37]: > 100 µM (inactive)
GI50 [38]: > 100 µM (inactive)
GI50 [39]: > 100 µM (inactive)
GI50 [40]: > 100 µM (inactive)
GI50 [41]: > 100 µM (inactive)
GI50 [42]: > 100 µM (inactive)
GI50 [43]: > 100 µM (inactive)
GI50 [44]: > 100 µM (inactive)
GI50 [45]: > 100 µM (inactive)
GI50 [46]: > 100 µM (inactive)
GI50 [47]: > 100 µM (inactive)
GI50 [48]: > 100 µM (inactive)
GI50 [49]: > 100 µM (inactive)
GI50 [50]: > 100 µM (inactive)
GI50 [51]: > 100 µM (inactive)
GI50 [52]: > 100 µM (inactive)
GI50 [53]: > 100 µM (inactive)
GI50 [54]: > 100 µM (inactive)
GI50 [55]: > 100 µM (inactive)

O=C1c2ccccc2C(=O)c2c(NCCCNCCO)ccc(NCCCNCCO)c21
GI50 [1]: 8.97 µM (inactive)
GI50 [2]: 4.82 µM (inactive)
GI50 [3]: 4.79 µM (inactive)
GI50 [4]: 4.67 µM (inactive)
GI50 [5]: 5.37 µM (inactive)
GI50 [6]: 12.9 µM
GI50 [56]: 8.91 µM (inactive)
GI50 [57]: 12.6 µM (inactive)
GI50 [7]: 8.32 µM (inactive)
GI50 [8]: 9.68 µM (inactive)
GI50 [9]: 7.13 µM (inactive)
GI50 [10]: 3.8 µM (inactive)
GI50 [58]: 7.48 µM (inactive)
GI50 [11]: 11.8 µM (inactive)
GI50 [12]: 5.51 µM (inactive)
GI50 [13]: 3.85 µM (inactive)
GI50 [14]: 5.35 µM (inactive)
GI50 [59]: 2.88 µM (inactive)
GI50 [15]: 9.82 µM (inactive)
GI50 [16]: 1.61 µM (inactive)
GI50 [18]: 7.74 µM (inactive)
GI50 [19]: 4.93 µM (inactive)
GI50 [20]: 5.71 µM (inactive)
GI50 [21]: 2.64 µM (inactive)
GI50 [22]: 13.2 µM (inactive)
GI50 [23]: 14.6 µM (inactive)
GI50 [60]: 6.01 µM (inactive)
GI50 [24]: 8.91 µM (inactive)
GI50 [25]: 3 µM (inactive)
GI50 [26]: 5.01 µM (inactive)
GI50 [27]: 10.6 µM (inactive)
GI50 [28]: 13.4 µM (inactive)
GI50 [61]: 3.65 µM (inactive)
GI50 [62]: 10.7 µM (inactive)
GI50 [29]: 3.5 µM (inactive)
GI50 [30]: 10.7 µM (inactive)
GI50 [31]: 5.13 µM (inactive)
GI50 [32]: 5.85 µM (inactive)
GI50 [33]: 9.42 µM (inactive)
GI50 [34]: 5.36 µM (inactive)
GI50 [63]: 10.2 µM (inactive)
GI50 [35]: 4.24 µM (inactive)
GI50 [36]: 13.9 µM (inactive)
GI50 [37]: 11.5 µM (inactive)
GI50 [38]: 3.03 µM (inactive)
GI50 [39]: 15.9 µM (inactive)
GI50 [41]: 4.51 µM (inactive)
GI50 [42]: 4.33 µM (inactive)
GI50 [43]: 7.33 µM (inactive)
GI50 [44]: 17.8 µM (inactive)
GI50 [45]: 5.57 µM (inactive)
GI50 [46]: 13.1 µM (inactive)
GI50 [64]: 11.6 µM (inactive)
GI50 [47]: 15.2 µM (inactive)
GI50 [48]: 4.82 µM (inactive)
GI50 [49]: 5.11 µM (inactive)
GI50 [65]: 5.52 µM (inactive)
GI50 [50]: 16 µM (inactive)
GI50 [66]: 12 µM (inactive)
GI50 [67]: 14.5 µM (inactive)
GI50 [68]: 28.5 µM (inactive)
GI50 [69]: 7.67 µM (inactive)
GI50 [51]: 3.08 µM (inactive)
GI50 [52]: 4 µM (inactive)
GI50 [53]: 15.7 µM (inactive)
GI50 [54]: 4.69 µM (inactive)
GI50 [55]: 10 µM (inactive)
